Test results reported in the supplement of paper PMC10307832.

Legend:
Assay in all cases: relative viability (nuclei count vs DMSO), 5 days (fraction); higher = more cells survive
Shikonin + Bortezomib = compound: CC(C)=CC[C@@H](O)C1=CC(=O)c2c(O)ccc(O)c2C1=O [Shikonin] + CC(C)C[C@H](NC(=O)[C@H](Cc1ccccc1)NC(=O)c1cnccn1)B(O)O [Bortezomib] (partner 0.002 µM)
Method in brief: (§1)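 A single step with final 0.05% Triton X-100, 1% formaldehyde and 1 ug/ml Hoechst fixed the cells and stained nuclei 5 days after treatment. Lung cancer cell lines in 1536-well plates had been treated by pin tool the day after seeding with one drug alone or a fixed anchor-drug dose plus five library-drug doses (not always all listed) in √10 steps, and nuclei were counted on 4× images. Relative viability is the ratio of nuclei in treated wells to nuclei in vehicle wells, taken as the median of duplicate plates.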

Shikonin + Pictilisib = compound: CC(C)=CC[C@@H](O)C1=CC(=O)c2c(O)ccc(O)c2C1=O [Shikonin] + CS(=O)(=O)N1CCN(Cc2cc3nc(-c4cccc5[nH]ncc45)nc(N4CCOCC4)c3s2)CC1 [Pictilisib] (partner 1 µM)
Method in brief: as §1

Shikonin + Olaparib = compound: CC(C)=CC[C@@H](O)C1=CC(=O)c2c(O)ccc(O)c2C1=O [Shikonin] + O=C(c1cc(Cc2n[nH]c(=O)c3ccccc23)ccc1F)N1CCN(C(=O)C2CC2)CC1 [Olaparib] (partner 8 µM)
Method in brief: as §1

[1] = compound: CC(C)N(CCCNC(=O)Nc1ccc(C(C)(C)C)cc1)C[C@H]1O[C@@H](n2ccc3c(N)ncnc32)[C@H](O)[C@@H]1O + Cc1nc(Nc2ncc(C(=O)Nc3c(C)cccc3Cl)s2)cc(N2CCN(CCO)CC2)n1 [Dasatinib] (partner 0.075 µM)
Method in brief: as §1

Row | Cell Line | relative viability (Shikonin + Bortezomib; first compound 0.01 µM) | relative viability (Shikonin + Bortezomib; first compound 0.1 µM) | relative viability (Shikonin + Bortezomib; first compound 0.3162 µM) | relative viability (Shikonin + Bortezomib; first compound 1 µM) | relative viability (Shikonin + Pictilisib; first compound 0.01 µM) | relative viability (Shikonin + Pictilisib; first compound 0.1 µM) | relative viability (Shikonin + Pictilisib; first compound 0.3162 µM) | relative viability (Shikonin + Pictilisib; first compound 1 µM) | relative viability (Shikonin + Olaparib; first compound 0.01 µM) | relative viability (Shikonin + Olaparib; first compound 0.1 µM) | relative viability (Shikonin + Olaparib; first compound 0.3162 µM) | relative viability (Shikonin + Olaparib; first compound 1 µM) | relative viability ([1]; first compound 0.08 µM) | relative viability ([1]; first compound 0.253 µM) | relative viability ([1]; first compound 0.8 µM) | relative viability ([1]; first compound 2.53 µM) | relative viability ([1]; first compound 8 µM)
1 | HCC-15 | 1.16 | 1.15 | 1.08 | 1.22 | 0.699 | 0.789 | 0.732 | 0.832 | 0.796 | 0.735 | 0.722 | 0.669 | 0.596 | 0.684 | 0.574 | 0.581 | 0.591
2 | HCC-44 | 0.946 | 0.99 | 0.864 | 0.933 | 0.663 | 0.835 | 0.564 | 0.728 | 0.963 | 1.01 | 1.07 | 0.993 |  |  |  |  | 
3 | HCC-78 | 0.572 | 0.474 | 0.607 | 0.552 | 0.185 | 0.234 | 0.188 | 0.249 | 0.911 | 0.753 | 0.964 | 0.755 | 0.485 | 0.311 | 0.466 | 0.308 | 0.32
4 | HCC-366 | 1.32 | 1.59 | 1.12 | 1.08 | 0.164 | 0.137 | 0.165 | 0.127 | 0.423 | 0.428 | 0.33 | 0.404 | 0.608 | 0.647 | 0.442 | 0.587 | 0.536
5 | HCC-827 | 1.11 | 1.06 | 1.03 | 1.1 | 1.12 | 0.786 | 1.03 | 0.871 | 0.678 | 0.562 | 0.621 | 0.52 | 0.286 | 0.44 | 0.355 | 0.311 | 0.423
6 | HOP-62 | 0.958 | 0.715 | 0.875 | 0.902 | 0.714 | 1.09 | 0.933 | 0.62 | 0.267 | 0.455 | 0.379 | 0.676 | 0.629 | 0.615 | 0.54 | 0.577 | 0.604
7 | IA-LM | 0.715 | 0.769 | 1.04 | 0.876 | 0.363 | 0.364 | 0.337 | 0.305 | 0.993 | 0.891 | 0.893 | 0.885 |  |  |  |  | 
8 | LK-2 |  |  |  |  | 0.531 | 0.546 | 0.619 | 0.476 | 0.744 | 0.887 | 0.75 | 0.753 | 0.447 | 0.294 | 0.267 | 0.368 | 0.302
9 | NCI-H358 |  |  |  |  | 0.297 | 0.366 | 0.281 | 0.343 | 0.622 | 0.619 | 0.539 | 0.219 | 0.172 | 0.158 | 0.171 | 0.174 | 0.165
10 | NCI-H522 |  |  |  |  |  |  |  |  | 0.645 | 0.614 | 0.597 | 0.491 | 0.888 | 0.839 | 0.896 | 0.839 | 0.809
11 | NCI-H1299 | 1.03 | 1.03 | 1.05 | 1.03 | 0.76 | 1.08 | 0.711 | 0.429 | 0.969 | 0.986 | 0.976 | 0.832 |  |  |  |  | 
12 | NCI-H1395 |  |  |  |  | 0.603 | 0.695 | 0.584 | 0.652 | 0.407 | 0.455 | 0.416 | 0.427 | 0.471 | 0.433 | 0.392 | 0.441 | 0.463
13 | NCI-H1563 | 0.824 | 0.909 | 0.757 | 0.607 | 0.629 | 0.719 | 0.675 | 0.566 |  |  |  |  | 0.447 | 0.42 | 0.488 | 0.434 | 0.424
14 | NCI-H1648 |  |  |  |  |  |  |  |  | 0.846 |  | 1.08 | 0.816 |  |  |  |  | 
15 | NCI-H1703 | 0.302 | 0.361 | 0.23 | 0.114 | 0.26 | 0.238 | 0.206 | 0.205 | 0.42 | 0.47 | 0.395 | 0.241 |  |  |  |  | 
16 | NCI-H1793 |  |  |  |  | 0.359 | 0.251 | 0.241 | 0.304 | 1.12 | 0.995 | 1 | 0.914 | 0.368 |  | 0.355 | 0.36 | 0.38
17 | NCI-H1944 |  |  |  |  | 0.352 | 0.379 | 0.353 | 0.392 | 0.428 | 0.408 | 0.414 | 0.387 | 0.197 | 0.197 | 0.257 | 0.243 | 0.222
18 | NCI-H2170 |  |  |  |  | 0.291 | 0.34 | 0.338 | 0.326 | 0.623 | 0.594 | 0.588 | 0.576 | 0.429 | 0.478 | 0.55 | 0.591 | 0.562
19 | NCI-H2342 |  |  |  |  |  |  |  |  | 0.43 | 0.392 | 0.38 | 0.383 | 0.336 | 0.29 | 0.289 | 0.321 | 0.277
20 | SK-MES-1 |  |  |  |  | 0.352 | 0.392 | 0.413 | 0.368 | 0.887 | 0.665 | 0.723 | 0.495 | 0.348 | 0.355 | 0.356 | 0.475 | 0.316
21 | SW 900 |  |  |  |  |  |  |  |  | 1.05 | 0.776 | 0.917 | 0.717 | 0.74 | 0.542 |  | 0.605 | 0.54
